Data from PMC5515969, “Effects of 31 FDA approved small-molecule kinase inhibitors on isolated rat liver mitochondria” (Archives of Toxicology, 2016).
Where two headings read alike, the source gives them in different places. Marks after values point to notes of the source that are not given here.

Assays:
[1] = test system: isolated rat liver mitochondria; test: Mitochondrial oxygen consumption (glutamate/malate or succinate driven, state 4 and state 3); assay type: biochemical; details: for Glutamate/malate driven respiration State 3 / Glutamate/malate driven respiration State 4 / Succinate-driven respiration State 3 / Succinate-driven respiration State 4: oxygen consumption, DMSO-treated = 1; for State 3 respiration driven by succinate at 10XCmax: key: 0 indicates that the drug had no effects (negative); for State 3 respiration driven by succinate at 1XCmax: key: 0 indicates that the drug had no effects (negative)
Outline: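 Rat liver mitochondria (1 mg/ml protein) exposed 5 min to kinase inhibitors in 0.1% DMSO, then O2 consumption measured by Clark-type electrode with glutamate/malate or succinate (state 4), ADP added after 3 min (state 3). Rates normalized to 0.1% DMSO controls set to 1.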

RCC I = RCC I activity in submitochondrial particles; assay type: biochemical, rat; set-up: key to RCC I at 10XCmax / RCC I at 100XCmax / RCC I at 50XCmax / RCC I at 30XCmax / RCC I at 20XCmax: activity relative to DMSO-treated controls (control set as 1 = 100%); details: for RCC activity I: 15 min
Outline: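 Abs 340 nm (I/V) or 600 nm (II), 1-min reads × 6 min; 550 nm (III, IV), 10-s reads × 2 min. RCC I = rotenone-free minus rotenone rate. DMSO control = 1.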

RCC II = molecular target: T1, RCC II (Rattus norvegicus, UniProt P21913+Q641Z9+Q6PCT8+Q920L2); test: RCC II activity in submitochondrial particles; assay type: biochemical; set-up: key: activity relative to DMSO-treated controls (control set as 1 = 100%); details: DMSO treated samples set as 1
T1 construct: Submitochondrial particles were prepared by subjecting the intact mitochondria to three successive freeze–thaw cycles; from tissue; host or cells: rat liver mitochondria, used as submitochondrial particles
T1 sequence (Q920L2 35-656): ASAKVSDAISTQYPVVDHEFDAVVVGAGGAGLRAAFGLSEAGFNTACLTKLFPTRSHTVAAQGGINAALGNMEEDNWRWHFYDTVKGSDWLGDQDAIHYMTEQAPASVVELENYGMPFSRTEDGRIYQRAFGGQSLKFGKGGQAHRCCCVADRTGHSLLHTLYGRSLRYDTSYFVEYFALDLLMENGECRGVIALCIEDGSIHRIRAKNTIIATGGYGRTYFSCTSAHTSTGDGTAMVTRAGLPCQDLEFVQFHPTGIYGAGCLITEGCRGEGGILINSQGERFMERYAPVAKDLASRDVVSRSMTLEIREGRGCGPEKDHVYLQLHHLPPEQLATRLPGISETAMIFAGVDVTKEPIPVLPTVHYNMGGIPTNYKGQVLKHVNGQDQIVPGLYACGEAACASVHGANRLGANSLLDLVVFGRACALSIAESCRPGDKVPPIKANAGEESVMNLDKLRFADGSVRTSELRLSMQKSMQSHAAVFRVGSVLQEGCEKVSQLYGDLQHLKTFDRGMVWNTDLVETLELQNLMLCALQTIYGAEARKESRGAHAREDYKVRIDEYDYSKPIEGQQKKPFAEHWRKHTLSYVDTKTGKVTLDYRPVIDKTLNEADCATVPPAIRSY
T1 sequence (P21913 31-282): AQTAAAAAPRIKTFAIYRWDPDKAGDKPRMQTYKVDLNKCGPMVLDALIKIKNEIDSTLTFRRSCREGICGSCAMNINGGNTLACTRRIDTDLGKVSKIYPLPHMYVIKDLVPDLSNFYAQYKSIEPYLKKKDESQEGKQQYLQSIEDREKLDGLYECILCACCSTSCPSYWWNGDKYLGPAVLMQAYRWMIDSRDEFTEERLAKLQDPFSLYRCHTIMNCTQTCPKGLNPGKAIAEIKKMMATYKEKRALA
T1 sequence (Q641Z9 1-169): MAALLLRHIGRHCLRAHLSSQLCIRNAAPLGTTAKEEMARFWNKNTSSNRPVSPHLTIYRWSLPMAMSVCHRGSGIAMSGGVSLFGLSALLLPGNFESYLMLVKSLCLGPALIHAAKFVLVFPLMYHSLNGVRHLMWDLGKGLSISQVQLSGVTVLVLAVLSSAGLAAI
T1 sequence (Q6PCT8 57-159): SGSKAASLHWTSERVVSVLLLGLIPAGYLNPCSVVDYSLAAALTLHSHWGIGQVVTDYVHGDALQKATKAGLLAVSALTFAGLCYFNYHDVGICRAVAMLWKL
Outline: (§1)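 Kinase inhibitors were preincubated 15 min with submitochondrial particles (1 mg/ml) before complex activities were measured. RCC I was the rotenone-sensitive portion (activity without minus with rotenone). RCC I/V was read at 340 nm and RCC II at 600 nm every 1 min for 6 min. RCC III and IV were read at 550 nm every 10 s for 2 min. Activities are normalized to DMSO controls set as 1.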

RCC III = RCC III activity in submitochondrial particles; assay type: biochemical, rat; set-up: key to RCC III at 100XCmax: activity relative to DMSO-treated controls (control set as 1 = 100%); details: for RCC activity III: 15 min, DMSO-treated = 100
Outline: as §1

RCC IV = RCC IV activity in submitochondrial particles; assay type: biochemical, rat; set-up: key to RCC IV at 50XCmax / RCC IV at 100XCmax: activity relative to DMSO-treated controls (control set as 1 = 100%); details: for RCC activity IV: 15 min, DMSO-treated = 100
Outline: as §1

RCC V = RCC V activity in submitochondrial particles; assay type: biochemical, rat; details: for RCC activity V: 15 min, DMSO-treated = 100; for RCC V at 5XCmax: key: 0 indicates that the drug had no effects (negative)
Outline: as §1

[2] = test system: isolated rat liver mitochondria; test: Mitochondrial inner membrane potential (MMP), Rhodamine 123; assay type: biochemical
Description: Fig. 3 KI effects on mitochondrial inner membrane potential (MMP). […] In a, c, data are means and standard derivations from three separate experiments. *p < 0.05 as compared to DMSO-treated samples at the end of experiments. In b, data are means of two independent experiments

[3] = test system: isolated rat liver mitochondria; test: Mitochondrial swelling (absorbance at 535 nm); assay type: biochemical; for Swelling 5XCmax: key: 0 indicates that the drug had no effects (negative)
[4] = cited from earlier work
[5] = cited from earlier work; remark: listed apart in the source
[6] = 1XCmax, DMSO treated samples set as 1
[7] = 2.5XCmax, DMSO treated samples set as 1
[8] = 5XCmax, DMSO treated samples set as 1
[9] = 10XCmax, DMSO treated samples set as 1
[10] = 20XCmax, DMSO treated samples set as 1
[11] = 30XCmax, DMSO treated samples set as 1
[12] = 50XCmax, DMSO treated samples set as 1
[13] = 100XCmax, DMSO treated samples set as 1
[14] = 1XCmax, difference in signal between KI and DMSO treated samples at the end of experiments
[15] = 2.5XCmax, difference in signal between KI and DMSO treated samples at the end of experiments
[16] = 5XCmax, difference in signal between KI and DMSO treated samples at the end of experiments
[17] = 10XCmax, difference in signal between KI and DMSO treated samples at the end of experiments
[18] = 20XCmax, difference in signal between KI and DMSO treated samples at the end of experiments
[19] = 30XCmax, difference in signal between KI and DMSO treated samples at the end of experiments
[20] = 50XCmax, difference in signal between KI and DMSO treated samples at the end of experiments
[21] = 100XCmax, difference in signal between KI and DMSO treated samples at the end of experiments

## Cc1cc(Nc2ncc(Cl)c(Nc3ccccc3S(=O)(=O)C(C)C)n2)c(OC(C)C)cc1C1CCNCC1 [Ceritinib]
[1]; [6]
  State 3 respiration driven by glutamate/malate at 1XCmax: 0
  State 3 respiration driven by succinate at 1XCmax: 0
  State 4 respiration driven by glutamate/malate at 1XCmax: 0
  State 4 respiration driven by succinate at 1XCmax: 0
[1]; [7]
  State 3 respiration driven by glutamate/malate at 2.5XCmax: 0
  State 3 respiration driven by succinate at 2.5XCmax: 0
  State 4 respiration driven by glutamate/malate at 2.5XCmax: 0
  State 4 respiration driven by succinate at 2.5XCmax: 0
[1]; [8]
  State 3 respiration driven by glutamate/malate at 5XCmax: 0
  State 3 respiration driven by succinate at 5XCmax: 0
  State 4 respiration driven by glutamate/malate at 5XCmax: 0
  State 4 respiration driven by succinate at 5XCmax: 0
[1]; [9]
  State 3 respiration driven by glutamate/malate at 10XCmax: 0
  State 3 respiration driven by succinate at 10XCmax: 0
  State 4 respiration driven by glutamate/malate at 10XCmax: 0
  State 4 respiration driven by succinate at 10XCmax: 0
[1]; [10]
  State 3 respiration driven by glutamate/malate at 20XCmax: 0
  State 3 respiration driven by succinate at 20XCmax: 0
  State 4 respiration driven by glutamate/malate at 20XCmax: 0
  State 4 respiration driven by succinate at 20XCmax: 0
[1]; 30-fold Cmax
  Glutamate/malate driven respiration State 3: 0.88 ± 0.05
  Glutamate/malate driven respiration State 4: 1.12 ± 0.13
  Succinate-driven respiration State 3: 0.41 ± 0.18
  Succinate-driven respiration State 4: 0.70 ± 0.12
[1]; [11]
  State 3 respiration driven by glutamate/malate at 30XCmax: 0
  State 3 respiration driven by succinate at 30XCmax: 0.41±0.18
  State 4 respiration driven by glutamate/malate at 30XCmax: 0
  State 4 respiration driven by succinate at 30XCmax: 0.70±0.12
[1]; 50-fold Cmax
  Glutamate/malate driven respiration State 3: 0.55 ± 0.03
  Glutamate/malate driven respiration State 4: 1.21 ± 0.12
  Succinate-driven respiration State 3: 0.45 ± 0.08
  Succinate-driven respiration State 4: 0.77 ± 0.07
[1]; [12]
  State 3 respiration driven by glutamate/malate at 50XCmax: 0.55±0.03
  State 3 respiration driven by succinate at 50XCmax: 0.45±0.08
  State 4 respiration driven by glutamate/malate at 50XCmax: 1.21±0.12
  State 4 respiration driven by succinate at 50XCmax: 0.77±0.07
[1]; 100-fold Cmax
  inhibition of mitochondrial oxygen consumption: ~100%
  Glutamate/malate driven respiration State 3: 0.08 ± 0.02
  Glutamate/malate driven respiration State 4: 0.50 ± 0.06
  Succinate-driven respiration State 3: 0.03 ± 0.02
  Succinate-driven respiration State 4: 0.17 ± 0.10
[1]; [13]
  State 3 respiration driven by glutamate/malate at 100XCmax: 0.08±0.02
  State 3 respiration driven by succinate at 100XCmax: 0.03±0.02
  State 4 respiration driven by glutamate/malate at 100XCmax: 0.50±0.06
  State 4 respiration driven by succinate at 100XCmax: 0.17±0.10
[1]; tested at 1 to 100-fold Cmax
  lowest concentration significantly affecting mitochondrial oxygen consumption: 30 fold Cmax
RCC I; [9]
  RCC I at 10XCmax: 0
RCC I; 50-fold Cmax, DMSO-treated = 100
  RCC activity I: 94.04 ± 3.32 % of control
RCC I; 100-fold Cmax, DMSO-treated = 100
  RCC activity I: 63.74 ± 13.12 % of control
RCC I; 100XCmax, DMSO-treated = 100
  RCC I at 100XCmax: 63.74±13.12
RCC II; 1.0XCmax
  RCC II at 1.0XCmax: 0
RCC II; 2.5XCmax
  RCC II at 2.5XCmax: 0
RCC II; 5XCmax
  RCC II at 5XCmax: 0
RCC II; 10XCmax
  RCC II at 10XCmax: 0
RCC II; 20XCmax
  RCC II at 20XCmax: 0
RCC II; 30XCmax
  RCC II at 30XCmax: 0
RCC II; 50XCmax
  RCC II at 50XCmax: 0
RCC II; 100XCmax
  RCC II at 100XCmax: 69.91±10.00
RCC III; 50-fold Cmax
  RCC activity III: 103.80 ± 5.19 % of control
RCC III; 100-fold Cmax
  RCC activity III: 68.48 ± 6.59 % of control
RCC III; 100XCmax
  RCC III at 100XCmax: 68.48±6.59
RCC IV; 50-fold Cmax
  RCC activity IV: 82.33 ± 3.68 % of control
RCC IV; 50XCmax, DMSO treated samples set as 1, in %
  RCC IV at 50XCmax: 82.33±3.68
RCC IV; 100-fold Cmax
  RCC activity IV: 71.46 ± 7.39 % of control
RCC IV; 100XCmax
  RCC IV at 100XCmax: 71.46±7.39
RCC V; [8]
  RCC V at 5XCmax: 0
RCC V; 50-fold Cmax
  RCC activity V: 71.23 ± 9.65 % of control
RCC V; [12]
  RCC V at 50XCmax: 71.23±9.65
RCC V; 100-fold Cmax
  RCC activity V: 34.25 ± 2.09 % of control
RCC V; [13]
  RCC V at 100XCmax: 34.25±2.09
[2]
  lowest concentration decreasing MMP: 100 fold Cmax
[2]; [14]
  MMP measured by Rhodamine 123 at 1XCmax: 0
[2]; [15]
  MMP measured by Rhodamine 123 at 2.5XCmax: 0
[2]; [16]
  MMP measured by Rhodamine 123 at 5XCmax: 0
[2]; [17]
  MMP measured by Rhodamine 123 at 10XCmax: 0
[2]; [18]
  MMP measured by Rhodamine 123 at 20XCmax: 0
[2]; [19]
  MMP measured by Rhodamine 123 at 30XCmax: 0
[2]; [20]
  MMP measured by Rhodamine 123 at 50XCmax: 0
[2]; [21]
  MMP measured by Rhodamine 123 at 100XCmax: 4568±757*
[2]; up to 100-fold Cmax or highest testable concentration
  effect on MMP: decrease in MMP
[3]
  lowest concentration causing mitochondrial swelling: 100 fold Cmax
[3]; [14]
  Swelling 1XCmax: 0
[3]; [15]
  Swelling 2.5XCmax: 0
[3]; [16]
  Swelling 5XCmax: 0
[3]; [17]
  Swelling 10XCmax: 0
[3]; [18]
  Swelling 20XCmax: 0
[3]; [19]
  Swelling 30XCmax: 0
[3]; [20]
  Swelling 50XCmax: 0
[3]; [21]
  Swelling 100XCmax: 0.54±0.06
[3]; up to 100-fold Cmax or highest testable concentration, 25 µM calcium chloride
  effect on mitochondrial swelling: significant mitochondrial swelling
[4]; human therapeutic Cmax at FDA recommended dosages, ref product labeling and drug approval packages at the official FDA website
  Cmax: 1.81 µM
[4]; human therapeutic maximal blood concentration, ref product labeling
  Cmax (ng or µg/ml): 1.01 µg/mL
[4]; read-out: Cmax at µM, human therapeutic maximal blood concentration, ref product labeling
  Cmax: 1.81 µM
[5]; 1 DILI positive, 0 negative according to labeling, ref product labeling
  DILI potential (based on labeling): 1
[5]; BBW: black box warning, W&P: Warnings and Precautions, ref product labeling
  Labeling for DILI: W&P: ALT↑
[5]; W&P warnings and precautions, BBW black box warnings, ref FDA product labeling
  labeling for DILI: W&P: ALT↑/monitoring
[5]; ref FDA product labeling
  DILI potential (based on labeling): 1
